Assay results from patent publication US20130059385A1, “METHODS OF GENERATING PLURIPOTENT STEM CELLS” (THE SCRIPPS RESEARCH INSTITUTE, priority 2010, published 2013).

Experiments:
MEF cells = settings: cited from earlier work
[1] = tested on: Neural progenitor cells (NPCs); settings: NPC reprogramming, Shi et al. 2008; cited from earlier work
[2] = tested on: MEFs transduced with Oct4, Sox2 and Klf4; experiment: Reprogramming of MEFs transduced by Oct4, Sox2 and Klf4 (AP-positive / Oct4-GFP-positive colonies); format: cell-based, mouse
Text: FIG. 1. CHIR99021 promoted the reprogramming of MEFs transduced by Oct4, Sox2 and Klf4. MEFs from 129 strain were transduced with Oct4, Sox2 and Klf4 by retroviruses, and treated the next day with increasing concentrations of CHIR99021 for two week. Three weeks later, AP was detected by staining cells in monolayer (A). […] After 3 weeks of treatment, the GFP positive colonies in each well were counted (B).
Cell Culture and Viral Transduction: MEFs were derived from 12952/SvPasCrlf and ROSA26^+/−/OG2^+/− mice according to the protocol reported on WiCell Research Institute website: “Introduction to human embryonic stem cell culture methods”. ROSA26^+/−/OG2^+/− transgenic mice carry GFP reporter gene under the control of the Oct4 promoter (Oct4-GFP) and the ubiquitously expressed neo/lacZ transgene [Do J T, Scholer H R, Stem Cells, 22:941-949 (2004)]. Animal experiments were performed according to the Animal Protection Guidelines of the Max Planck Institute for Biomolecular Research, Germany. […] MEFs transduced with Oct4/Klf4/Sox2 (1×10^4 cells/well together with 10^5 cells/well CF1 feeders in 6-well plates) were then treated with GSK-3 inhibitor CHIR99021 (Stemgent) for two weeks, and EGFP positive colonies were picked up at the third week after treatment. MEFs transduced with Oct4/Klf4 (1×10^5 cells/well in 6-well plates) were treated with 10 μM CHIR99021 for four weeks, GFP positive colonies were picked up and expanded at the fourth to fifth week after treatment.
Cytochemistry and Immunofluorescence Assay: Alkaline Phosphatase staining was performed according to the manufacturer's protocol using the Alkaline Phosphatase Detection Kit (Millipore). For immunofluorescence assay, cells were fixed in 4% paraformaldehyde for 10 minutes and washed three times with PBS containing 0.1% Triton X-100 (Sigma-Aldrich). The fixed cells were then incubated in blocking buffer, 0.1% Triton X-100 and 10% normal donkey serum (Jackson ImmunoResearch Laboratories Inc) in PBS (Invitrogen/Gibco BRL), for 30 min at room temperature. […]

[3] = tested on: Sox2 and Oct4 expression in MEFs; experiment: Real-time PCR of pluripotency gene expression in untransduced MEFs after treatment; format: cell-based, mouse; settings: 10 μM CHIR99021, three days
Text: FIG. 2. […] Scale bars, 20μm. […] PCR analysis: […] The primer for viral Klf4 was [NT] and [NT]. The primer for FGF-4 was [NT] and [NT].

For `Nc1ncn([C@@H]2O[C@H](CO)[C@@H](O)[C@H]2O)c(=O)n1` [5-AZA], the “improvement of reprogramming efficiency” value (MEF cells) is listed as “up to 4 folds”.

For `COc1cc2nc(N3CCCN(C)CC3)nc(NC3CCN(Cc4ccccc4)CC3)c2cc1OC` [BIX-01294], the “enhancement of reprogramming efficiency” value [1] is listed as “over 8 fold”.

With `Cc1c[nH]c(-c2cnc(NCCNc3ccc(C#N)cn3)nc2-c2ccc(Cl)cc2Cl)n1` [CHIR99021] the “concentration showing the greatest effects on reprogramming” value ([2]; Oct4/Sox2/Klf4-transduced ROSA26+/-/OG2+/- MEFs) was “about 10 μM”, the “reprogramming efficiency (GFP-positive colonies) of transduced MEFs” value ([2]; about 10 μM CHIR99021, treated two weeks, counted after 3 weeks, without compound 0.03-0.08%) was 0.2-0.4% and the “number of AP-positive mESC-like colonies” value ([2]; treated two weeks, AP staining at third week after treatment) was “significantly increased the number of alkaline phosphase (AP)-positive mESC-like colonies in a dose-dependent manner”. The “induction of Sox2 and Oct4 expression in MEFs (real-time PCR)” value [3] was “did not induce the expression of Sox2 and Oct4”.
